The record followed here is patent publication US20250304537A1 (Repare Therapeutics Inc., priority 2022, published 2025).

Structures are written as SMILES. Where two headings read alike, the source gives them in different places.

In assay [1] the test system is PKMYT1 (CDK1 pThr14) in FUOV1 cells. The assay is described as follows: PKMYT1 cell-based activity assay, CDK1 pThr14 AlphaLISA in FUOV1 cells. To be noted: 2 h, read-out: FUOV-1 CDK1 pThr14 IC50. In short, it runs like this: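 FUOV1 cells were treated with PKMYT1 inhibitor for 2 h at 37 °C, then lysed. CDK1 pThr14 was measured by AlphaLISA, pairing an anti-pThr14 antibody with an anti-total CDK1 antibody (5 nM each). Signal read at 680/615 nm and used to derive IC50.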
Background: Bead proximity is the source of the signal in Alpha formats.

Assay [2] concerns the target recombinant human Myt1 (full length PKMYT1) (Homo sapiens (Human), UniProt Q99640). The assay is described as follows: Recombinant human Myt1 kinase assay (ADP-Glo). The class given is biochemical. The note with it: 10 μM ATP. In short, it runs like this:
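Full-length insect-cell-expressed human Myt1 (18 nM final) was preincubated with compound (0.5% DMSO) for 15 min at 22 °C. The reaction ran with 10 μM ATP for 60 min at 30 °C in HEPES buffer with Mg2+/Mn2+ and DTT. ADP formed was read by ADP-Glo luminescence, giving IC50 and % max inhibition.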
In general terms: ADP-Glo first removes unused ATP, then detects ADP through luciferase.

Chain of recombinant human Myt1 (full length PKMYT1) (Q99640 whole entry): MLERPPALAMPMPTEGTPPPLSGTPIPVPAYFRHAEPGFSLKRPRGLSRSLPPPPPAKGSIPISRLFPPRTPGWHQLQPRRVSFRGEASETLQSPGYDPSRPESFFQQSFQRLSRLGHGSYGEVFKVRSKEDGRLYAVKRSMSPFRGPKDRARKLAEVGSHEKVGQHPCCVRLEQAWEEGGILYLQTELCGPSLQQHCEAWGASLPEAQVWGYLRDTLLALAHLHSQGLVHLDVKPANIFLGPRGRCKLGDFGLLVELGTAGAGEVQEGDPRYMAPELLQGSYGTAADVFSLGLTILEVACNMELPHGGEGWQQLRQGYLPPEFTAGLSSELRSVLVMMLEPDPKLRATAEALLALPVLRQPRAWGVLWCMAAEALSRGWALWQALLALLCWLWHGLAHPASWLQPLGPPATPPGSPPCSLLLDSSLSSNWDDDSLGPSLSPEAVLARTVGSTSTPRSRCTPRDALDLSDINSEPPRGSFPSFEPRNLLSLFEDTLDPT

For orientation: IC50 means the midpoint of a concentration-inhibition curve. With `Cc1ccc2[nH]ncc2c1-c1cc(-c2ccnc(OCCc3nccs3)n2)nc(C(N)=O)c1N` [Compound 313], the 50% inhibitory concentration (IC50) in assay [1] (2 h incubation) came to 137 nM; in assay [2], 6 nM.

For the molecule `Cc1ccc2[nH]ncc2c1-c1cc(-c2ccnc(OCCn3ccnc3)n2)nc(C(N)=O)c1N` [Compound 315], the results for the IC50 in assay [1] (2 h incubation) and in assay [2] were 349 nM and 9 nM, respectively.

For the molecule `CC(=O)Nc1ccccc1-c1nc(C(N)=O)c(N)c(-c2c(C)ccc3[nH]ncc23)n1` [Compound 320], the IC50 in assay [1] (2 h incubation) was 19 nM; in assay [2], 6 nM.

As for `Cc1ccc2[nH]ncc2c1-c1cc(-c2cccc(N[C@H]3C[C@H](O)C3)n2)nc(C(N)=O)c1N` [Compound 322], the results for the IC50 in assay [1] (2 h incubation) and in assay [2] were 164 nM and 10 nM, respectively.

Turning to `Cc1ccc2[nH]ncc2c1-c1nc(-c2cccc3cn[nH]c23)nc(C(N)=O)c1N` [Compound 323], the IC50 in assay [1] (2 h incubation) is 108 nM; in assay [2], 6 nM.

On to `Cc1ccc2[nH]ncc2c1-c1cc(-c2cccc(OCc3ccnnc3)n2)nc(C(N)=O)c1N` [Compound 326], for which the IC50 in assay [1] (2 h incubation) turned out to be 134 nM; in assay [2], 5 nM.

Regarding `COC(C)(C)COc1nccc(-c2cc(-c3c(C)ccc4[nH]ncc34)c(N)c(C(N)=O)n2)n1` [Compound 327], the IC50 in assay [1] (2 h incubation) was determined as 351 nM; in assay [2], 6 nM.

For `COCC(=O)Nc1ccccc1-c1nc(C(N)=O)c(N)c(-c2c(C)ccc3[nH]ncc23)n1` [Compound 332, 5-amino-2-(2-(2-methoxyacetamido)phenyl)-6-(5-methyl-1H-indazol-4-yl)pyrimidine-4-carboxamide], the results for the IC50 in assay [1] (2 h incubation) and in assay [2] were 56 nM and 6 nM, respectively.

On to `Cc1ccc2[nH]ncc2c1-c1cc(-c2ccnc(OC[C@H](N)c3ccccc3)n2)nc(C(N)=O)c1N` [Compound 342], for which the IC50 stood at 6 nM in assay [1] (2 h incubation) and 3 nM in assay [2].

For the molecule `COC(COc1cccc(-c2cc(-c3c(C)ccc4[nH]ncc34)c(N)c(C(N)=O)n2)n1)C1CC1` (centres unmarked) [Compound 344], the half-inhibitory concentration (IC50) in assay [1] (2 h incubation) stood at 983 nM; in assay [2] it was 7 nM.

Consider `Cc1ccc2[nH]ncc2c1-c1cc(-c2cccc(OCC3(N)CC3)n2)nc(C(N)=O)c1N` [Compound 353], for which the IC50 in assay [1] (2 h incubation) amounted to 20 nM; in assay [2], 7 nM.

Consider `CNc1ccccc1-c1nc(C(N)=O)c(N)c(-c2c(C)ccc3[nH]ncc23)n1` [Compound 365], for which the IC50 in assay [1] (2 h incubation) worked out at 774 nM; in assay [2], 28 nM.

As for `Cc1ccc2[nH]ncc2c1-c1nc(-c2ccccc2NC(=O)C(C)(C)C)nc(C(N)=O)c1N` [Compound 377], the IC50 in assay [1] (2 h incubation) came out at 21 nM; in assay [2], 3 nM.

Regarding `Cc1ccc2[nH]ncc2c1-c1nc(-c2cccc3ncsc23)nc(C(N)=O)c1N` [Compound 380], the IC50 was 772 nM in assay [1] (2 h incubation) and 6 nM in assay [2].

With `Cc1ccc2[nH]ncc2c1-c1nc(-c2ccccc2NC(C)C(F)(F)F)nc(C(N)=O)c1N` (centres unmarked) [Compound 381, 5-amino-6-(5-methyl-1H-indazol-4-yl)-2-(2-((1,1,1-trifluoropropan-2-yl)amino)phenyl)pyrimidine-4-carboxamide], the IC50 in assay [1] (2 h incubation) was found to be 13 nM; in assay [2], 11 nM.

Take `Cc1ccc2[nH]ncc2c1-c1nc(-c2cccc3c2NC(=O)C3)nc(C(N)=O)c1N` [Compound 385]: the IC50 in assay [1] (2 h incubation) was determined as 289 nM; in assay [2], 5 nM.

With `Cc1nc2cccc(-c3nc(C(N)=O)c(N)c(-c4c(C)ccc5[nH]ncc45)n3)c2s1` [Compound 389], the concentration for half-maximal inhibition (IC50) in assay [1] (2 h incubation) was 433 nM; in assay [2], 8 nM.

On to `COC(COc1nccc(-c2cc(-c3c(C)ccc4[nH]ncc34)c(N)c(C(N)=O)n2)n1)C1CC1` (centres unmarked) [Compound 391], for which the IC50 amounted to 56 nM in assay [1] (2 h incubation) and 5 nM in assay [2].

With `Cc1ccc2[nH]ncc2c1-c1nc(-c2cc(F)cc3c2NC(=O)C3)nc(C(N)=O)c1N` [Compound 393], the figures for the IC50 in assay [1] (2 h incubation) and in assay [2] were 288 nM and 6 nM, respectively.

With `Cc1ccc2[nH]ncc2c1-c1nc(-c2cccc3c2NC(=O)C3(F)F)nc(C(N)=O)c1N` [Compound 395], the IC50 in assay [1] (2 h compound incubation) amounted to 780 nM; in assay [2], 17 nM.

As for `Cc1ccc2[nH]ncc2c1-c1nc(-c2cccc3cnsc23)nc(C(N)=O)c1N` [Compound 396], the IC50 in assay [1] (2 h compound incubation) is 152 nM; in assay [2], 5 nM.

On to `Cc1ccc2[nH]ncc2c1-c1nc(-c2ccccc2NC(=O)C2CC2)nc(C(N)=O)c1N` [Compound 397], for which the IC50 came out at 13 nM in assay [1] (2 h compound incubation) and 4 nM in assay [2].

For the molecule `Cc1ccc2[nH]ncc2c1-c1nc(-c2ccccc2NC(=O)C(C)(C)C)cc(C(N)=O)c1N` [Compound 398], the IC50 in assay [1] (2 h compound incubation) came to 28 nM; in assay [2], 7 nM.

For the molecule `Cc1ccc2[nH]ncc2c1-c1nc(-c2cccc3c2NC(=O)C32CC2)nc(C(N)=O)c1N` [Compound 399], the concentration for half-maximal inhibition (IC50) was 143 nM in assay [1] (2 h compound incubation) and 17 nM in assay [2].

Take `Cc1ccc2[nH]ncc2c1-c1nc(-c2ccccc2NCC(F)F)nc(C(N)=O)c1N` [Compound 400, 5-amino-2-(2-((2,2-difluoroethyl)amino)phenyl)-6-(5-methyl-1H-indazol-4-yl)pyrimidine-4-carboxamide]: the IC50 in assay [1] (2 h compound incubation) turned out to be 36 nM; in assay [2], 2 nM.

Take `Cc1ccc2[nH]ncc2c1-c1nc(-c2ccccc2NC(=O)C2(C)CC2)nc(C(N)=O)c1N` [Compound 401]: the IC50 in assay [1] (2 h compound incubation) is 4 nM; in assay [2], 5 nM.

Regarding `Cc1ccc2[nH]ncc2c1-c1nc(-c2ccccc2NC(=O)C(C)(C)C(F)(F)F)nc(C(N)=O)c1N` [Compound 402], the IC50 in assay [1] (2 h compound incubation) worked out at 41 nM; in assay [2], 6 nM.

As to `CC(C)(C)C(=O)Nc1ccccc1-c1nc(C(N)=O)c(N)c(-c2c(Cl)ccc3[nH]ncc23)n1` [Compound 403], the IC50 amounted to 14 nM in assay [1] (2 h compound incubation) and 2 nM in assay [2].

For the molecule `Cc1ccc2[nH]ncc2c1-c1nc(-c2ccccc2NC(=O)C2(C(F)(F)F)CC2)nc(C(N)=O)c1N` [Compound 405], the IC50 in assay [1] (2 h compound incubation) is 93 nM; in assay [2] it was 4 nM.

With `Cc1ccc2[nH]ncc2c1-c1nc(-c2ccccc2NC(C)C(F)(F)F)cc(C(N)=O)c1N` (centres unmarked) [Compound 406], the values for the IC50 in assay [1] (2 h compound incubation) and in assay [2] were 53 nM and 5 nM, respectively.

As for `Cc1ccc2[nH]ncc2c1-c1nc(-c2ccccc2NC(=O)C2(C)COC2)nc(C(N)=O)c1N` [Compound 408], the IC50 came to 9 nM in assay [1] (2 h compound incubation) and 7 nM in assay [2].

Take `Cc1ccc2[nH]ncc2c1-c1nc(-c2ccccc2NCC(F)(F)F)nc(C(N)=O)c1N` [Compound 409]: the IC50 was 28 nM in assay [1] (2 h compound incubation) and 5 nM in assay [2].

In the case of `CC1(C(=O)Nc2ccccc2-c2nc(C(N)=O)c(N)c(-c3c(Cl)ccc4[nH]ncc34)n2)CC1` [Compound 410], the 50% inhibitory concentration (IC50) in assay [1] (2 h compound incubation) amounted to 9 nM; in assay [2], 4 nM.

On to `NC(=O)c1nc(-c2ccccc2NC(=O)C2(C(F)(F)F)CC2)nc(-c2c(Cl)ccc3[nH]ncc23)c1N` [Compound 411], for which the 50% inhibitory concentration (IC50) in assay [1] (2 h compound incubation) worked out at 60 nM; in assay [2], 7 nM.

Turning to `Cc1ccc2[nH]ncc2c1-c1nc(-c2ccccc2NCC(F)F)cc(C(N)=O)c1N` [Compound 412], the IC50 in assay [1] (2 h compound incubation) turned out to be 223 nM; in assay [2] it was 4 nM.

On to `Cc1ccc2[nH]ncc2c1-c1nc(-c2ccccc2NCC(F)(F)F)cc(C(N)=O)c1N` [Compound 413], for which the IC50 in assay [1] (2 h compound incubation) is 184 nM; in assay [2], 5 nM.

`Cc1ccc2[nH]ncc2c1-c1nc(-c2ccccc2C(F)F)nc(C(N)=O)c1N` [Compound 414]: the figures for the IC50 in assay [1] (2 h compound incubation) and in assay [2] were 2460 nM and 122 nM, respectively.
